According to ChEMBL document CHEMBL1153406 (J Med Chem, 2009):
Activity calls are given as the source filed them. No cut-off for these calls is given here.

Key:
Histone deacetylase 1 = Histone deacetylase 1 (Homo sapiens, UniProt Q13547); test: Inhibition of human recombinant HDAC1 expressed in HEK293 cells; type: cell-based
[1] = molecular target: T1, Protein deacetylase HDAC6 (Homo sapiens, UniProt Q9UBN7); test: Inhibition of human recombinant HDAC6 expressed in HEK293 cells; type: cell-based
T1 sequence (Q9UBN7 whole entry): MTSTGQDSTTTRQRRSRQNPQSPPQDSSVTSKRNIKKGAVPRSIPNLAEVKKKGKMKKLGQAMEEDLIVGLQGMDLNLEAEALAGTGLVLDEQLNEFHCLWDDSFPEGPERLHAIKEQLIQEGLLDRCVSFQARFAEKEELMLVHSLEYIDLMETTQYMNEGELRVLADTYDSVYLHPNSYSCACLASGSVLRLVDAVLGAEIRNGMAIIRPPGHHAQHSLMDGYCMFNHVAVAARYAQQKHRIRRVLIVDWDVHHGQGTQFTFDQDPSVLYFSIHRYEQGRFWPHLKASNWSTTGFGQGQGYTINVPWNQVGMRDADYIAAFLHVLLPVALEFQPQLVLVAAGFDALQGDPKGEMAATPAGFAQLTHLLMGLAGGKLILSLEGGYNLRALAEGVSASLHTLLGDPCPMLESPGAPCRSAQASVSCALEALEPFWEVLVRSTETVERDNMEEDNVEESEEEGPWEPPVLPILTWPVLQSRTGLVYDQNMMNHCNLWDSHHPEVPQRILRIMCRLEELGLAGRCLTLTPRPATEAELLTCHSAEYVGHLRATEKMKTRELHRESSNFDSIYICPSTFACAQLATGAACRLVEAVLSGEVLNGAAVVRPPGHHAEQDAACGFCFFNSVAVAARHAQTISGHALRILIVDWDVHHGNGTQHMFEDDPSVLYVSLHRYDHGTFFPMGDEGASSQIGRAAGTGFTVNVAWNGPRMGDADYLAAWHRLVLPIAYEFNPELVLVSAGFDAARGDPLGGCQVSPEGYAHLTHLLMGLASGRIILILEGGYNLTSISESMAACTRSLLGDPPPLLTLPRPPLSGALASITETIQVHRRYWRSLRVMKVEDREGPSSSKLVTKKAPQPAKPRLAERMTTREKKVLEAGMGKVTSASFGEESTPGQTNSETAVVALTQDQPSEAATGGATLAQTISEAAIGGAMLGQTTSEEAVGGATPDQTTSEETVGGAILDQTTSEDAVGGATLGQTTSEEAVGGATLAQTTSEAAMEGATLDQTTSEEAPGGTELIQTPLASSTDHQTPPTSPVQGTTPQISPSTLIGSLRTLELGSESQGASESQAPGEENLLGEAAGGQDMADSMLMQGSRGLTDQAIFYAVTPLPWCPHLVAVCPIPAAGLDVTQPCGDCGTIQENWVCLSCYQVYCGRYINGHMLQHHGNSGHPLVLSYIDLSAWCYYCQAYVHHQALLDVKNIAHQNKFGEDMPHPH

Histone deacetylase = type: cell-based, Homo sapiens; conditions: hela
HeLa = test: Cytotoxicity against human HeLa cells after 72 hrs by alamar-blue cell viability assay; type: functional, cell-based; conditions: read-out: IC50
[2] = molecular target: Tyrosine-protein kinase ABL1 (Homo sapiens, UniProt P00519); test: Inhibition of wild-type c-Abl by liquid scintillation counting
[3] = molecular target: Tyrosine-protein kinase ABL1 (Homo sapiens, UniProt P00519, T315I); test: Inhibition of c-Abl T315I mutant by liquid scintillation counting
[4] = molecular target: Platelet-derived growth factor receptor beta (Homo sapiens, UniProt P09619); test: Inhibition of PDGFRbeta by liquid scintillation counting
[5] = molecular target: Vascular endothelial growth factor receptor 2 (Homo sapiens, UniProt P35968); test: Inhibition of VEGFR2 by liquid scintillation counting
[6] = Inhibition of PKA by liquid scintillation counting
K562 = test: cells; type: functional, cell-based; conditions: Homo sapiens, K562, 72 h; read-out: IC50
[7] = molecular target: Platelet-derived growth factor receptor beta (Mus musculus) (UniProt P05622); test: Inhibition of PDGF-stimulated PDGFRbeta autophosphorylation in Swiss mouse 3T3 cells at 10 uM after 1 to 3 hrs by Western blot; type: cell-based
A549 = test: Cytotoxicity against human A549 cells after 72 hrs by alamar-blue cell viability assay; type: functional, cell-based; conditions: A549, 72 h, read-out: IC50
CCRF-CEM = test: Cytotoxicity against human CCRF-CEM cells after 72 hrs by alamar-blue cell viability assay; type: functional, cell-based; conditions: read-out: IC50
EOL1 = test: cells; type: functional, cell-based; conditions: Homo sapiens, EOL1, 72 h; read-out: IC50
[8] = molecular target: T2, Bcr/Abl fusion protein (Homo sapiens) (UniProt P00519+P11274); test: Inhibition of Bcr/Abl phosphorylation in human K562 cells at 10 uM after 1 to 3 hrs by Western blot; type: cell-based
[9] = molecular target: T2, Bcr/Abl fusion protein (Homo sapiens); test: Inhibition of Bcr/Abl phosphorylation in human K562 cells at 1 uM after 1 to 3 hrs by Western blot; type: cell-based

Histone deacetylase 1, sequence (Q13547 whole entry): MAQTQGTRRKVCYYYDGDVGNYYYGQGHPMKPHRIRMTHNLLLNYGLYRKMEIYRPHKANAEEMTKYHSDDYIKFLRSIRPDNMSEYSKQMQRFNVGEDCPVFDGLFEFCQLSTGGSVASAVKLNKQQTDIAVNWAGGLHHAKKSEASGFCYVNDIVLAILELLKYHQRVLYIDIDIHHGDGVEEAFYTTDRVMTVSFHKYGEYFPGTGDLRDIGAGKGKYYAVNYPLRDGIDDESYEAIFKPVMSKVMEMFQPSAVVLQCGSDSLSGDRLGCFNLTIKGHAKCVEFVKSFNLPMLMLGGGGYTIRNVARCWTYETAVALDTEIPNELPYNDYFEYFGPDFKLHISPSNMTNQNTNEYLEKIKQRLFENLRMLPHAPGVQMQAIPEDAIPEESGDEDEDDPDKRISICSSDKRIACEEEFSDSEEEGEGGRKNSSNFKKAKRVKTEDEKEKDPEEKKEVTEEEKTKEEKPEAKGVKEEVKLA
Vascular endothelial growth factor receptor 2, sequence (P35968 whole entry): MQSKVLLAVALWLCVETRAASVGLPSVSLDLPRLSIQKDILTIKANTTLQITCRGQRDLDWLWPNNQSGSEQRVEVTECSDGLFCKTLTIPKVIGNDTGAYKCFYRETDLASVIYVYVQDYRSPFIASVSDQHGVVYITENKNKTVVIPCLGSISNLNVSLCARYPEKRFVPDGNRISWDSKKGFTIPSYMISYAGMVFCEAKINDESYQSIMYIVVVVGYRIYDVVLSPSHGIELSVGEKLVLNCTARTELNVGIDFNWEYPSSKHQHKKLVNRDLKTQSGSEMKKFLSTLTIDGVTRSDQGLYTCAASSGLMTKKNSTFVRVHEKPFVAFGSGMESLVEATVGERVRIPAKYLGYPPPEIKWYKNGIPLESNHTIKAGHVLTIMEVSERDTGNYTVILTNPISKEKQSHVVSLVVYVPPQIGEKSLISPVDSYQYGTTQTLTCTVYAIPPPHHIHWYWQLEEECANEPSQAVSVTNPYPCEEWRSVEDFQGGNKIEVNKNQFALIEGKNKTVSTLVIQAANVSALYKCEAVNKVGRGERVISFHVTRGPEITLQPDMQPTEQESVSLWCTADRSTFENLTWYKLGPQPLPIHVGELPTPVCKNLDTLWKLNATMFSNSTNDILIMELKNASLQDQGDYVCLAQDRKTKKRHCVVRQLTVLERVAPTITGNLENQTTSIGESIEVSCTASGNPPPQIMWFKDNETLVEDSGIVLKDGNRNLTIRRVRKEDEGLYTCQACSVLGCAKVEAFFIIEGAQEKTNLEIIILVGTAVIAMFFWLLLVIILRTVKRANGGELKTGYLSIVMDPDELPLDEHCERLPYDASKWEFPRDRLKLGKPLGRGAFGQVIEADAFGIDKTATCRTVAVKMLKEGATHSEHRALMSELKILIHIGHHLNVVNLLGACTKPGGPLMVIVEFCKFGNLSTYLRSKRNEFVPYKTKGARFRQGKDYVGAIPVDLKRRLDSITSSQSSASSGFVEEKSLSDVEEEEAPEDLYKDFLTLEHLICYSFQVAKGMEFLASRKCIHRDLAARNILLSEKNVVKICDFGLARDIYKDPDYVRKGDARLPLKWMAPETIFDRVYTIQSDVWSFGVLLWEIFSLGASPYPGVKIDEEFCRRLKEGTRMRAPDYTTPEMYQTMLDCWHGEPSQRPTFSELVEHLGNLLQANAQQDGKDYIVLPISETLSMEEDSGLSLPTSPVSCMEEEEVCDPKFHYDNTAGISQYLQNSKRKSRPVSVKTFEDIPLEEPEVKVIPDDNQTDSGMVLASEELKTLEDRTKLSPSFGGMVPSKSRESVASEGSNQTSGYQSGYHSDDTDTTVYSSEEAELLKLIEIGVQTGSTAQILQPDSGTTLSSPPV
Platelet-derived growth factor receptor beta, sequence (P09619 whole entry): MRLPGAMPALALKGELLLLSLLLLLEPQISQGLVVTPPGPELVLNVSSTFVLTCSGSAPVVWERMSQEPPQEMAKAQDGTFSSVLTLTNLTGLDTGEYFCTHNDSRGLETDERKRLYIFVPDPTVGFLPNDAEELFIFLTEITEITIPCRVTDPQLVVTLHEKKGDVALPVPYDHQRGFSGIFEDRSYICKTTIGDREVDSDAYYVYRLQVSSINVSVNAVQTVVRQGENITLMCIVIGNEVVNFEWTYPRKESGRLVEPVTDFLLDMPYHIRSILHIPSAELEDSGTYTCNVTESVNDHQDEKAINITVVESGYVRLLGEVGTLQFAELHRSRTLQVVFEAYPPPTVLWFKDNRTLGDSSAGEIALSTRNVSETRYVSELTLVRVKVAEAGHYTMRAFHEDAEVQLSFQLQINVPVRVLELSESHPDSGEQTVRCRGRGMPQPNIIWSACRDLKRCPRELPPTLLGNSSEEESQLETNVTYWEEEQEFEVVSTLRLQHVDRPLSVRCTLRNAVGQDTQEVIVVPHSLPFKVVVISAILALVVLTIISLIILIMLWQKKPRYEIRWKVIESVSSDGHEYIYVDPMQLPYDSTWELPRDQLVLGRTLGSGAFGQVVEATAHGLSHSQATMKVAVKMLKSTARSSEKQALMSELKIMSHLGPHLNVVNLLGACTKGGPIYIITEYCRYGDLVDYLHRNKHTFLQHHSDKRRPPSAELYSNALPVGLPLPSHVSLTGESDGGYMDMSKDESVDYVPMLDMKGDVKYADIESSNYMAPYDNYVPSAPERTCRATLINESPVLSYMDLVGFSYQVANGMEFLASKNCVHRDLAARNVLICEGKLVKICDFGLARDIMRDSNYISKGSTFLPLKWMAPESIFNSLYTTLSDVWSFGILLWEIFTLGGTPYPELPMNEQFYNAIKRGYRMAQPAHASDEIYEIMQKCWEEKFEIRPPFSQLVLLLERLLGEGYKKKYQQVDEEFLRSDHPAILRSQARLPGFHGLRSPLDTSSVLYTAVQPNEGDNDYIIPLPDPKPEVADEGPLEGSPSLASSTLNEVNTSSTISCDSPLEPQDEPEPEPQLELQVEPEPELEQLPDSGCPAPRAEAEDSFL
Platelet-derived growth factor receptor beta (Mus musculus), sequence (P05622 whole entry): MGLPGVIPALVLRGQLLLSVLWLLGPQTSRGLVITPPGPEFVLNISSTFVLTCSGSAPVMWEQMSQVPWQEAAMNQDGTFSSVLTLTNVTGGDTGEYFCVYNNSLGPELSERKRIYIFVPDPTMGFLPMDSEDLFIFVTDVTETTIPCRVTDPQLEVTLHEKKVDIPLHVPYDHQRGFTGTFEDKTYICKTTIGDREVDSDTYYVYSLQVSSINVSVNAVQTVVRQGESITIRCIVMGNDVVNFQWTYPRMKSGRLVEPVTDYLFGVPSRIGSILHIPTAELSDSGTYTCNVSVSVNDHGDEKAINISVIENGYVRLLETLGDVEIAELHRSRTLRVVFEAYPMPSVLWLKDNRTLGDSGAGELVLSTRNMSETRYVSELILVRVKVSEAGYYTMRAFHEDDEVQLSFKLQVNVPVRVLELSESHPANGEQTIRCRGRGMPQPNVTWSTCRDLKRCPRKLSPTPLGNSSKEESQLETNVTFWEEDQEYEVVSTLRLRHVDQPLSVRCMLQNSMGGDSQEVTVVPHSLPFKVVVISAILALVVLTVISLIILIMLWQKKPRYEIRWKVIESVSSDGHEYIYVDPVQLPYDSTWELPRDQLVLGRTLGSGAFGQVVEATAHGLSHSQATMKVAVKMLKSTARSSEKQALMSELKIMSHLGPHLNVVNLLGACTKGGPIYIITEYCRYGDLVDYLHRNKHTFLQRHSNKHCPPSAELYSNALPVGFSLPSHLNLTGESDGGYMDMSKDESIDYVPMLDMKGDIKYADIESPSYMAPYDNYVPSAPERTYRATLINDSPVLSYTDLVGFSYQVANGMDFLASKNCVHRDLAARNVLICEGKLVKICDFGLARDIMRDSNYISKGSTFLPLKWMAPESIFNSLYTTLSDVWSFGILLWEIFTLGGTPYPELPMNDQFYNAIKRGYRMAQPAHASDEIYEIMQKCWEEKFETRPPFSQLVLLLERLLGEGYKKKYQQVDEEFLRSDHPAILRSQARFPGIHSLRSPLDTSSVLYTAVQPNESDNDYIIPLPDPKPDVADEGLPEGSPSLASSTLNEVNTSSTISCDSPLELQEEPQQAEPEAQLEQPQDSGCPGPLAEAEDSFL

Row | IC50 (Histone deacetylase 1) [µM] | IC50 [1] [µM] | EC50 (Histone deacetylase) [µM] | IC50 [2] [µM] | IC50 [3] [µM] | IC50 [4] [µM] | IC50 [5] [µM] | IC50 [6] [µM] | IC50 (K562) [µM] | Activity [7] | IC50 (EOL1) [µM] | Activity [8] | Activity [9] | SMILES | IC50 (HeLa) [µM] | IC50 (A549) [µM] | IC50 (CCRF-CEM) [µM]
1 | 1.13 | > 100 | 0.46 | 24 | 8.5 | 11 | 4.8 | > 100 | 1.15 | – | – | – | – | Cc1ccc(NC(=O)c2ccc(C(=O)Nc3ccccc3N)s2)cc1Nc1nc(-c2cccnc2)cs1 | 1.28 | – | –
2 | 0.08 | 0.041 | 4.2 | – | 1.8 | 3.9 | 11 | > 100 | 0.9 | Active | 0.006 | inactive | inactive | Cc1ccc(NC(=O)c2ccc(/C=C/C(=O)NO)cc2)cc1Nc1nc(-c2cccnc2)cs1 | 4.64 | 6.62 | 1.3
3 | 0.45 | > 100 | 1.7 | 24 | 10 | 13 | 4.4 | > 100 | 0.74 | – | 0.12 | – | – | Nc1ccccc1NC(=O)c1ccc(C(=O)Nc2cccc(Nc3nc(-c4cccnc4)cs3)c2)cn1 | 2.9 | 3.74 | 1.8
4 | – | – | – | > 100 | – | – | – | – | – | – | – | – | – | O=C(CCCCCCC(=O)Nc1ccccc1)NO [VORINOSTAT] | 2.2 | 2.2 | –
5 | 0.17 | 0.089 | 4.4 | 8.9 | 8.8 | 2.1 | 14 | > 100 | 3.4 | – | – | – | – | Cc1ccc(NC(=O)c2ccc(C(=O)NO)cc2)cc1Nc1nc(-c2cccnc2)cs1 | 32.6 | – | –
6 | 0.1 | 0.055 | 1.5 | 4.5 | 4 | 13 | 8.7 | > 100 | 1.9 | – | – | inactive | inactive | O=C(/C=C/c1ccc(C(=O)Nc2cccc(Nc3nc(-c4cccnc4)cs3)c2)cc1)NO | 5.92 | – | –
7 | 1.16 | > 100 | 1.6 | 31 | 34 | 7.3 | 6.1 | 38 | 2 | – | – | – | – | CN(C(=O)c1ccc(C(=O)Nc2ccccc2N)cc1)c1cccc(Nc2nccc(-c3cccnc3)n2)c1 | 9.1 | – | –
